# Results from PMC5537602, “TRPA1 channel mediates organophosphate-induced delayed neuropathy” (Cell Discovery, 2017).
# Entries after “also recorded” stand apart in the source; their conditions may differ.
# Columns and labels:
# hTRPA1 = target: T1, hTRPA1 (Homo sapiens, UniProt O75762); assay: cell-based; assay type: cell-based
# T1 construct: expressed in transfected cells; host or cells: HEK293, transient, EGFP plasmid co-transfected
# Method: Human embryonic kidney 293 (HEK293) cells were cultured in DMEM containing 10% (vol/vol) heat-inactivated fetal bovine serum, 100 units ml^−1 penicillin–streptomycin and 2 mM L-glutamine at 37 °C in a humidity-controlled sterile incubator with 5% CO2. All cell culture reagents were purchased from Life Technologies. HEK293 cells were transfected transiently with the corresponding plasmids using lipofectamine 2000 (Life Technologies). Transfection efficiency was monitored by co-transfecting EGFP plasmid which codes for the enhanced green fluorescent protein. Electrophysiological recordings were performed between 24 and 36 h after transfection.
# (§1) Whole-cell patch-clamp recordings in DRG neurons (small diameter, […]) and HEK293 cells were operated at room temperature (23–25 °C) using EPC-10 amplifier and Patch Master Software (HEKA). […] Currents were sampled at 10 kHz and low-pass filtered at 2.9 kHz. The internal solution was as follows (in mM): 140 CsCl, 10 HEPES, 5 EGTA, 0.1 CaCl2 and 1 MgCl2, with pH adjusted to 7.2 by CsOH and osmolarity 295–300 mOsm. The calcium-free external solution contained (in mM) 140 NaCl, 5 KCl, 0.5 EGTA, 1 MgCl2, 10 Glucose and 10 HEPES, with pH adjusted to 7.4 by NaOH and osmolarity 300–310 mOsm. The 0.5 mM EGTA was replaced by 2 mM CaCl2 for the recordings in DRG neurons. TRPA1 currents development was monitored with repetitive injections of 300 ms duration voltage ramps from −100 to +100 mV every 2 s and the holding potential was set to 0 mV for 50 ms, existing in both sides of the voltage ramp. To record inward currents in DRG neurons, we conducted voltage clamp at holding membrane potential of −70 mV. Solutions were switched using a gravity-fed continuous focal perfusion system.
# cTRPA1 = target: T2, cTRPA1 (Gallus gallus, UniProt W8VTH6); assay: Whole-cell patch-clamp, HEK293 cells expressing cTRPA1; assay type: cell-based, chicken
# T2 sequence (W8VTH6 1-1126): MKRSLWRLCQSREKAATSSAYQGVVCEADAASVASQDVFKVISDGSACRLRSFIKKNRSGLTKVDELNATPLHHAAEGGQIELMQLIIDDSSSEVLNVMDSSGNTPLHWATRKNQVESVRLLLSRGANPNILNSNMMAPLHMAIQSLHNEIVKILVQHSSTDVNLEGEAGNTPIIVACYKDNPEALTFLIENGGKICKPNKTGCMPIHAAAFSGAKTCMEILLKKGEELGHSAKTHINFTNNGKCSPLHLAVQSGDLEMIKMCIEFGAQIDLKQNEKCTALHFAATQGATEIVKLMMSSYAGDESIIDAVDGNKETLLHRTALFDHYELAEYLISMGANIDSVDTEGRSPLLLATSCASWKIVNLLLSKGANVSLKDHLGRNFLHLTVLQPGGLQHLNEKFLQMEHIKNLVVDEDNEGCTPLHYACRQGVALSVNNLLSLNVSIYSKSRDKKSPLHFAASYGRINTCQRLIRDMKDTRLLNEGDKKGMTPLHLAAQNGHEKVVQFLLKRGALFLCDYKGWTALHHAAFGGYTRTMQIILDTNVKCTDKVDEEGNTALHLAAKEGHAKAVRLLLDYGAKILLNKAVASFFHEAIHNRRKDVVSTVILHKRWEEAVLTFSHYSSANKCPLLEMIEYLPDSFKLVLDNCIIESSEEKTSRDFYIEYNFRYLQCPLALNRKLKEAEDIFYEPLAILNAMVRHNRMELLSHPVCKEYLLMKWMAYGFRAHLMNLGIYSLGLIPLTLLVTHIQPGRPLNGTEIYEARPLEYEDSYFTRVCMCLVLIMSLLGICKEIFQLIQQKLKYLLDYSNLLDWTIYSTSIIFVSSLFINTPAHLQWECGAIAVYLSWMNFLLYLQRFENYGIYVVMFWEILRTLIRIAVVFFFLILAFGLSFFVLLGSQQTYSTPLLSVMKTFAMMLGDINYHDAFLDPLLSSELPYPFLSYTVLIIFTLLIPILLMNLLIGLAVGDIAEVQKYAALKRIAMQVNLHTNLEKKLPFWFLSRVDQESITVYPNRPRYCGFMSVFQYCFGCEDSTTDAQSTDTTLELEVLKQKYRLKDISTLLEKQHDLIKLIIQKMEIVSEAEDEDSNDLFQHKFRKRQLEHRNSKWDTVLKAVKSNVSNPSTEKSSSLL
# Method: All cell culture reagents were purchased from Life Technologies. HEK293 cells were transfected transiently with the corresponding plasmids using lipofectamine 2000 (Life Technologies). Transfection efficiency was monitored by co-transfecting EGFP plasmid which codes for the enhanced green fluorescent protein. Electrophysiological recordings were performed between 24 and 36 h after transfection.
# as §1, with “The internal solution was as follows (in mM): 140 CsCl, 10 HEPES, 5 EGTA, 0.1 CaCl2 and 1 MgCl2, with pH adjusted to 7.2 by CsOH and osmolarity 295–300 mOsm.” left out
# hens = assay type: in vivo, hen; details: hens
# Method: The chosen adult Hyline Brown hens were raised individually in stainless steel wire cages. After 7 days of acclimatization, the chosen hens were randomly divided into groups (n=6–10 for each group). The hens in the delayed neuropathy groups were administered a single dose of 750 mg kg^−1 TOCP and repeated doses of 75 mg kg^−1 malathion by gavage. TOCP and malathion were dissolved in corn oil and administered at 0.65 ml kg^−1. In the HC030031 treatment groups, 100 mg kg^−1 HC030031 was administered by gavage daily beginning at day 0 or day 11. All hens were examined daily for signs of delayed neurotoxicity. A five-point graded scale was used to describe the clinical symptoms of delayed neuropathy, with 0 indicating normal ambulation; (1) suspected ataxia (lack of strength in the legs and tottering); (2) mild ataxia (slow, clumsy and unsteady gait); (3) gross ataxia (waddling gait and staggering and falling despite being active); (4) mild paralysis (typical paralytic posture and lame appearance); and (5) complete paralysis (unable to maintain posture, stand up or move at all), as described previously.
# T1 sequence (O75762 whole entry): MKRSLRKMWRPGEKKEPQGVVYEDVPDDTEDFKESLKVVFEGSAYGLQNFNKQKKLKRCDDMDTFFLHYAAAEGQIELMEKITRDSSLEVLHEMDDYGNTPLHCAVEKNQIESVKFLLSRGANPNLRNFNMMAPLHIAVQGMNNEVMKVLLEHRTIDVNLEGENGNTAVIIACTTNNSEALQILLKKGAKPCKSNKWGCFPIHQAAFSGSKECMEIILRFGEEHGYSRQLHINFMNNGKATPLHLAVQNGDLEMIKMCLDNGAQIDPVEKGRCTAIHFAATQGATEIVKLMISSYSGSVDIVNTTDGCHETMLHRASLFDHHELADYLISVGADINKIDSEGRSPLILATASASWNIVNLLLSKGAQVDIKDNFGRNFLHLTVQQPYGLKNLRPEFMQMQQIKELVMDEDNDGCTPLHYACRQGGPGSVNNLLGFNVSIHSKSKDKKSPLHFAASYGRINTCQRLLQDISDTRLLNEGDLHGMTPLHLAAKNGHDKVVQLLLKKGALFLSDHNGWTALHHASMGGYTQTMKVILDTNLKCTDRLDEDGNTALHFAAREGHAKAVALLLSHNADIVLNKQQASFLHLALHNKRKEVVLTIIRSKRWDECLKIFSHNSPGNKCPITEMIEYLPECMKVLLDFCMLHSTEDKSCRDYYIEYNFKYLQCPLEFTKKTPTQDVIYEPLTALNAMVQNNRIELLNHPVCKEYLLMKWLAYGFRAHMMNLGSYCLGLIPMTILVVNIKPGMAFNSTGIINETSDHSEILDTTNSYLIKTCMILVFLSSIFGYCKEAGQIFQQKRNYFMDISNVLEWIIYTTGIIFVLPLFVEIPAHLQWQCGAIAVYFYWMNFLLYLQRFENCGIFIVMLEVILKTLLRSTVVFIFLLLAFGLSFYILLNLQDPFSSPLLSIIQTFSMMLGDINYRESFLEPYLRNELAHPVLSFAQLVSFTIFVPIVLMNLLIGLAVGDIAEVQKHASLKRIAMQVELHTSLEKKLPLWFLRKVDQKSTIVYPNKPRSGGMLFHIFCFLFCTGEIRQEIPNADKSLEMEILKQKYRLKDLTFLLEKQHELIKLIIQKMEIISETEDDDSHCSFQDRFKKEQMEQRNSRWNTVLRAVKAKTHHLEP
Compound,block of agonist-elicited hTRPA1 currents (hTRPA1),block of malathion-elicited cTRPA1 currents (cTRPA1; 10 μM HC030031),effect on clinical signs of delayed neuropathy induced by TOCP or malathion (hens; HC030031 100 mg kg−1 daily by gavage from day 0 or day 11),"activation of hTRPA1 whole-cell currents (hTRPA1; 30 μM, calcium-free external solution)",EC50 (hTRPA1; whole-cell patch-clamp),EC50 (cTRPA1),activation of cTRPA1 whole-cell currents (cTRPA1; calcium-free external solution),"clinical symptoms of delayed neuropathy (hens; malathion 75 mg kg−1 q.d. for 11 days, day 5)"
CC(C)c1ccc(NC(=O)Cn2cnc3c2c(=O)n(C)c(=O)n3C)cc1 [HC030031],blocked; also recorded: inhibited,blocked,significantly alleviated,–,–,–,–,–
"CCOC(=O)CC(SP(=S)(OC)OC)C(=O)OCC (stereo not drawn) [malathion, S-[1,2-bis (ethoxycarbonyl)ethyl] O, O-dimethyl phosphorodithioate]",–,–,–,large activation current,14.2 ± 1.84 µM,10.8 ± 1.68 µM,large activation current,slow and clumsy gait
